Data from article PMC8662641, “Site-Specific Labeling of Endogenous Proteins Using CoLDR Chemistry” (Journal of the American Chemical Society, 2021).
pIC50, pKd: −log10 of the molar value. Structures can show the parent of a compound that is named as a salt.

How the values were obtained:
BTK = BTK (Homo sapiens, UniProt Q06187); design: BTK kinase domain was expressed and purified as previously reported; made in house; method as in Reddi et al., J. Am. Chem. Soc. 2021, 143 (13), 4979–4992; conditions: ref Reddi et al., J. Am. Chem. Soc. 2021, 143 (13), 4979–4992; cited from earlier work
Sequence of BTK (Q06187 402-655 limits assumed): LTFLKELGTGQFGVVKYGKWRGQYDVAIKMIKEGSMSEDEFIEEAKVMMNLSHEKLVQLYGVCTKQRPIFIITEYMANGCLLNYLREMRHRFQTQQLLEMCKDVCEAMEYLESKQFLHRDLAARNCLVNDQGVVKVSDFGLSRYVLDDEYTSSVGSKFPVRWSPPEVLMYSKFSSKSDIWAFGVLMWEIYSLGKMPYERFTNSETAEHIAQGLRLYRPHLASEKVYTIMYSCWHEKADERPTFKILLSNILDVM

BTK-1h = target: T1, BTK-1h (Homo sapiens, UniProt Q06187); experiment: High-throughput screening with 1h-labeled BTK; format: binding
T1 construct: The BTK kinase domain was diluted to 2 μM in the buffer, and 2 μM 1h was added; made in house
T1 sequence (Q06187 402-655): as the sequence (Q06187 402-655 limits assumed) above
Description: The collection was composed of BTK binding compounds obtained in our previous luminescence screen[37] (Data set S2). […] The resulting BTK-1h (50 μL) was added to the inhibitors.

G-quadruplexe = target: G-quadruplexe; design: method as in selleck (supplier comment); conditions: cell-free assay; ref selleck (supplier comment); cited from earlier work
Bcr-Abl(T315I) = test system: Bcr-Abl(T315I); design: method as in selleck (supplier comment); conditions: ref selleck (supplier comment); cited from earlier work
Bcr-Abl(WT) = test system: Bcr-Abl(WT); design: method as in selleck (supplier comment); conditions: ref selleck (supplier comment); cited from earlier work
[1] = Dataset S2A, 200 μM compound, BTK-1h, 32 °C, 10 min
[2] = Dataset S2C, BTK-1h with inhibitor

SMILES | BTK Inhibition reported in luminescence assay* (BTK) | FI (650)/FI (620) (BTK-1h; [1]) | FI (BTK-1h)/FI (BTK-1h+Inhibitor) at 620 nm (BTK-1h; [1]) | FI (650)/FI (620) (BTK-1h; [2]) | pKd (G-quadruplexe) | pIC50 (Bcr-Abl(T315I)) | pIC50 (Bcr-Abl(WT))
NCCOc1cc(C(=O)Nc2cc(OCCN)c3ccccc3n2)nc(C(=O)Nc2cc(OCCN)c3ccccc3n2)c1 [PCM-0215476-001, Pyridostatin Trifluoroacetate Salt] | 59.5 | 2.671 | 1.539 | 1.539 | 6.31 | – | –
Cc1ccc(C(=O)Nc2ccc(CN3CCN(C)CC3)c(C(F)(F)F)c2)cc1C#Cc1cnc2[nH]ncc2c1 [PCM-0215209-001, GZD824 Dimesylate] | 114.5 | 1.799 | 1.6661 | 1.6661 | – | 9.17 | 9.47
